US20140357718A1 (priority 2013, published 2014)
Read-outs that look alike come from different tables or passages of the source.

Columns and labels:
Assay type in all cases: cell-based
Clostridium perfringens = details: C. perfringens, 23 h, 40° C., anaerobic
Campylobacter jejuni = assay: Bacterial growth in pure culture with test composition (SYBR Green fluorescence); details: C. jejuni, 19 h, 40° C., anaerobic
Escherichia coli = assay: Bacterial growth in pure culture with test composition (turbidity 660 nm); details: E. coli, 9 h, 40° C., anaerobic
Lactobacillus crispatus = assay: as above; details: L. crispatus, 23 h, 40° C., anaerobic
[1] = free pH, 0.01% (w/v) composition
[2] = free pH, 0.1% (w/v) composition
[3] = free pH, 0.3% (w/v) composition
[4] = pH 6.5 (neutralised with NaOH), 0.01% (w/v) composition
[5] = pH 6.5 (neutralised with NaOH), 0.1% (w/v) composition
[6] = pH 6.5 (neutralised with NaOH), 0.3% (w/v) composition

What does the source list for `O=CO` [Composition C, formic acid]?
Growth of Indicator Bacteria (% of Growth Control) (Clostridium perfringens; [1]): 75%; Growth of Indicator Bacteria (% of Growth Control) (Clostridium perfringens; [2]): 20%; Growth of Indicator Bacteria (% of Growth Control) (Clostridium perfringens; [3]): 15%; Growth of Indicator Bacteria (% of Growth Control) (Clostridium perfringens; [4]): 100%; Growth of Indicator Bacteria (% of Growth Control) (Clostridium perfringens; [5]): 65%; Growth of Indicator Bacteria (% of Growth Control) (Clostridium perfringens; [6]): 60%; Growth of Indicator Bacteria (% of Growth Control) (Campylobacter jejuni; [1]): 170%; Growth of Indicator Bacteria (% of Growth Control) (Campylobacter jejuni; [2]): 20%; Growth of Indicator Bacteria (% of Growth Control) (Campylobacter jejuni; [3]): 10%; Growth of Indicator Bacteria (% of Growth Control) (Campylobacter jejuni; [4]): 170%; Growth of Indicator Bacteria (% of Growth Control) (Campylobacter jejuni; [5]): 115%; Growth of Indicator Bacteria (% of Growth Control) (Campylobacter jejuni; [6]): 65%; Growth of Indicator Bacteria (% of Growth Control) (Escherichia coli; [1]): 80%; Growth of Indicator Bacteria (% of Growth Control) (Escherichia coli; [2]): 20%; Growth of Indicator Bacteria (% of Growth Control) (Escherichia coli; [3]): 15%; Growth of Indicator Bacteria (% of Growth Control) (Escherichia coli; [4]): 110%; Growth of Indicator Bacteria (% of Growth Control) (Escherichia coli; [6]): 45%; Growth of Indicator Bacteria (% of Growth Control) (Lactobacillus crispatus; [1]): 95%; Growth of Indicator Bacteria (% of Growth Control) (Lactobacillus crispatus; [2]): 90%; Growth of Indicator Bacteria (% of Growth Control) (Lactobacillus crispatus; [3]): 75%; Growth of Indicator Bacteria (% of Growth Control) (Lactobacillus crispatus; [4]): 120%; Growth of Indicator Bacteria (% of Growth Control) (Lactobacillus crispatus; [5]): 115%; Growth of Indicator Bacteria (% of Growth Control) (Lactobacillus crispatus; [6]): 95%
